System: PBMC
Assay: Antiproliferative activity against human PBMC upto 100 uM; call rule not given here
Assay type: cell-based

Q: How did the Activity turn out when O=c1ccc2c(O[C@@H]3O[C@H](CO)[C@@H](O)[C@H](O)[C@H]3O)c(O[C@@H]3O[C@H](CO)[C@@H](O)[C@H](O)[C@H]3O)c3occc3c2o1 was run?
A: Not Active

Q: For O=c1ccc2c(O)c3ccoc3c(O[C@@H]3O[C@H](CO)[C@@H](O)[C@H](O)[C@H]3O)c2o1, which Activity is on record?
A: Not Active

Q: For O=c1ccc2c(O[C@@H]3O[C@H](CO)[C@@H](O)[C@H](O)[C@H]3O)c3ccoc3c(O)c2o1, which Activity is on record?
A: Not Active

Q: O=c1ccc2c(O)c(O[C@@H]3O[C@H](CO)[C@@H](O)[C@H](O)[C@H]3O)c3occc3c2o1 was tested. Which Activity did it give?
A: Not Active

System: PBMC
Assay: Antiproliferative activity against human PBMC
Assay type: cell-based

Q: How did the IC50 turn out when O=c1ccc2c(O[C@@H]3O[C@H](CO)[C@@H](O)[C@H](O)[C@H]3O)c(O)c3occc3c2o1 was run?
A: 33.4 µM

Q: C/C=C/C[C@@H](C)[C@@H](O)[C@H]1C(=O)N[C@@H](CC)C(=O)N(C)CC(=O)N(C)[C@@H](CC(C)C)C(=O)N[C@@H](C(C)C)C(=O)N(C)[C@@H](CC(C)C)C(=O)N[C@@H](C)C(=O)N[C@H](C)C(=O)N(C)[C@@H](CC(C)C)C(=O)N(C)[C@@H](CC(C)C)C(=O)N(C)[C@@H](C(C)C)C(=O)N1C [CYCLOSPORINE] was tested. Which IC50 did it give?
A: 0.012 µM

Source: ChEMBL document CHEMBL1142560, “Furocoumarin glycosides from the leaves of Ficus ruficaulis Merr. var. antaoensis” (J Nat Prod, 2005)
